Source: patent US20260285850A1, “SUBSTITUTED OXAZOLIDINONES AND IMIDAZOLINONES AS HERBICIDES” (FMC CORPORATION, priority 2023, published 2026)

Tests used:
Format in all cases: in vivo
[1] = tested on: ducksalad (Heteranthera limosa); test: Test B flooded paddy test, visual plant response rating 0-100; settings: 250 g ai/ha, Flood, applied to paddy water, evaluated after 13 days
How it was run: (§1)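 Treatment occurs at the 2-leaf stage by adding compound to floodwater standing 3 cm above the soil, a level kept for the whole test. Plants stay in the greenhouse 13 days before visual comparison with controls.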

[2] = tested on: rice (Oryza sativa); test: as above; settings: 250 g ai/ha, Flood, applied to paddy water, evaluated after 13 days
How it was run: as §1

[3] = tested on: barnyardgrass (Echinochloa crusgalli); test: as above; settings: 250 g ai/ha, Flood, applied to paddy water, evaluated after 13 days
How it was run: as §1

[4] = tested on: sedge, umbrella (small-flower umbrella sedge, Cyperus difformis); test: as above; settings: 250 g ai/ha, Flood, applied to paddy water, evaluated after 13 days
How it was run: as §1

[5] = tested on: green foxtail (Setaria viridis); test: Test A preemergence soil spray, visual injury rating 0-100; settings: 10 days, 0 = no effect, 100 = complete control
How it was run: (§2)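 Seeds sown in loam-sand blend got a preemergence directed soil spray, or emerged plants (2-10 cm, one- to two-leaf) got a postemergence spray, of compound in non-phytotoxic solvent with surfactant. After 10 days in greenhouse, injury rated visually versus untreated controls on a 0 (no effect) to 100 (complete control) scale.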

[6] = tested on: oat, wild (wild oat, Avena fatua); test: as above; settings: 10 days, 0 = no effect, 100 = complete control
How it was run: as §2

[7] = tested on: barnyardgrass (Echinochloa crus-galli); test: as above; settings: 10 days, 0 = no effect, 100 = complete control
How it was run: as §2

[8] = tested on: corn (Zea mays); test: as above; settings: 10 days, 0 = no effect, 100 = complete control
How it was run: as §2

[9] = tested on: ryegrass, Italian (italian ryegrass, Lolium multiflorum); test: as above; settings: 10 days, 0 = no effect, 100 = complete control
How it was run: as §2

[10] = tested on: kochia (Bassia scoparia); test: as above; settings: 10 days, 0 = no effect, 100 = complete control
How it was run: as §2

[11] = tested on: wheat (Triticum aestivum); test: as above; settings: 10 days, 0 = no effect, 100 = complete control
How it was run: as §2

[12] = tested on: blackgrass (Alopecurus myosuroides); test: as above; settings: 10 days, 0 = no effect, 100 = complete control
How it was run: as §2

[13] = tested on: soybean (Glycine max); test: as above; settings: 10 days, 0 = no effect, 100 = complete control
How it was run: as §2

[14] = tested on: ragweed (common ragweed, Ambrosia artemisiifolia); test: as above; settings: 10 days, 0 = no effect, 100 = complete control
How it was run: as §2

[15] = tested on: palmer (palmer amaranth, palmer pigweed, Amaranthus palmeri); test: as above; settings: 10 days, 0 = no effect, 100 = complete control
How it was run: as §2

[16] = tested on: green foxtail (Setaria viridis); test: Test A postemergence application, visual injury rating 0-100; settings: 10 days
How it was run: as §2

[17] = tested on: oat, wild (wild oat, Avena fatua); test: as above; settings: 10 days
How it was run: as §2

[18] = tested on: horseweed (Erigeron canadensis); test: as above; settings: 10 days
How it was run: as §2

[19] = tested on: barnyardgrass (Echinochloa crus-galli); test: as above; settings: 10 days
How it was run: as §2

[20] = tested on: corn (Zea mays); test: as above; settings: 10 days
How it was run: as §2

[21] = tested on: galium (catchweed bedstraw, Galium aparine); test: as above; settings: 10 days
How it was run: as §2

[22] = tested on: ryegrass, Italian (italian ryegrass, Lolium multiflorum); test: as above; settings: 10 days
How it was run: as §2

[23] = tested on: kochia (Bassia scoparia); test: as above; settings: 10 days
How it was run: as §2

[24] = tested on: wheat (Triticum aestivum); test: as above; settings: 10 days
How it was run: as §2

[25] = tested on: blackgrass (Alopecurus myosuroides); test: as above; settings: 10 days
How it was run: as §2

[26] = tested on: soybean (Glycine max); test: as above; settings: 10 days
How it was run: as §2

[27] = tested on: ragweed (common ragweed, Ambrosia artemisiifolia); test: as above; settings: 10 days
How it was run: as §2

[28] = tested on: palmer (palmer amaranth, palmer pigweed, Amaranthus palmeri); test: as above; settings: 10 days
How it was run: as §2

[29] = 31 g ai/ha, postemergence, 0 = no effect, 100 = complete control
[30] = Postemergence, 125 g ai/ha, 0 is no effect, 100 is complete control

Q: How did the “Plant response rating, Ducksalad (0 to 100 scale, 0 is no effect and 100 is complete control)” value [1] turn out when `CCOC(=O)C1CCC(NC(=O)C2(C)CN(c3cc(F)cc(Cl)c3)C(=O)O2)C1` (stereo not shown) [Compound 19] was run?
A: 70

Q: What about the “Plant response rating, Rice (0 to 100 scale, 0 is no effect and 100 is complete control)” value [2] of the same compound?
A: 0

Q: And the “Plant response rating, Barnyardgrass (0 to 100 scale, 0 is no effect and 100 is complete control)” value [3]?
A: 65

Q: And the “Plant response rating, Sedge, Umbrella (0 to 100 scale, 0 is no effect and 100 is complete control)” value [4]?
A: 60

Q: What about the “Foxtail, Green plant response rating (0-100)” value ([5]; 31 g ai/ha) of the same compound?
A: 50

Q: And the “Foxtail, Green plant response rating (0 to 100 scale)” value ([5]; 125 g ai/ha)?
A: 90

Q: And the “Oat, Wild plant response rating (0-100)” value ([6]; 31 g ai/ha)?
A: 0

Q: And the “Oat, Wild plant response rating (0 to 100 scale)” value ([6]; 125 g ai/ha)?
A: 60

Q: And the “Barnyardgrass plant response rating (0-100)” value ([7]; 31 g ai/ha)?
A: 30

Q: And the “Barnyardgrass plant response rating (0 to 100 scale)” value ([7]; 125 g ai/ha)?
A: 80

Q: What about the “Corn plant response rating (0-100)” value ([8]; 31 g ai/ha) of the same compound?
A: 10

Q: What about the “Corn plant response rating (0 to 100 scale)” value ([8]; 125 g ai/ha) of the same compound?
A: 50

Q: And the “Ryegrass, Italian plant response rating (0-100)” value ([9]; 31 g ai/ha)?
A: 80

Q: And the “Ryegrass, Italian plant response rating (0 to 100 scale)” value ([9]; 125 g ai/ha)?
A: 80

Q: What about the “Kochia plant response rating (0-100)” value ([10]; 31 g ai/ha) of the same compound?
A: 0

Q: And the “Kochia plant response rating (0 to 100 scale)” value ([10]; 125 g ai/ha)?
A: 90

Q: What about the “Wheat plant response rating (0-100)” value ([11]; 31 g ai/ha) of the same compound?
A: 70

Q: And the “Wheat plant response rating (0 to 100 scale)” value ([11]; 125 g ai/ha)?
A: 90

Q: What about the “Blackgrass plant response rating (0-100)” value ([12]; 31 g ai/ha) of the same compound?
A: 0

Q: What about the “Blackgrass plant response rating (0 to 100 scale)” value ([12]; 125 g ai/ha) of the same compound?
A: 50

Q: What about the “Soybean plant response rating (0-100)” value ([13]; 31 g ai/ha) of the same compound?
A: 0

Q: What about the “Soybean plant response rating (0 to 100 scale)” value ([13]; 125 g ai/ha) of the same compound?
A: 20

Q: What about the “Ragweed plant response rating (0-100)” value ([14]; 31 g ai/ha) of the same compound?
A: 0

Q: What about the “Ragweed plant response rating (0 to 100 scale)” value ([14]; 125 g ai/ha) of the same compound?
A: 0

Q: What about the “Amaranth, Palmer plant response rating (0-100)” value ([15]; 31 g ai/ha) of the same compound?
A: 30

Q: And the “Amaranth, Palmer plant response rating (0 to 100 scale)” value ([15]; 125 g ai/ha)?
A: 90

Q: And the “Foxtail, Green plant response rating (0-100)” value [16, 29]?
A: 40

Q: And the “Foxtail, Green plant response rating (0 to 100 scale)” value [16, 30]?
A: 90

Q: And the “Oat, Wild plant response rating (0-100)” value [17, 29]?
A: 90

Q: What about the “Oat, Wild plant response rating (0 to 100 scale)” value [17, 30] of the same compound?
A: 90

Q: What about the “Horseweed plant response rating (0-100)” value [18, 29] of the same compound?
A: 0

Q: What about the “Horseweed plant response rating (0 to 100 scale)” value [18, 30] of the same compound?
A: 0

Q: And the “Barnyardgrass plant response rating (0-100)” value [19, 29]?
A: 60

Q: And the “Barnyardgrass plant response rating (0 to 100 scale)” value [19, 30]?
A: 100

Q: And the “Corn plant response rating (0-100)” value [20, 29]?
A: 50

Q: What about the “Corn plant response rating (0 to 100 scale)” value [20, 30] of the same compound?
A: 100

Q: What about the “Galium plant response rating (0-100)” value [21, 29] of the same compound?
A: 80

Q: What about the “Galium plant response rating (0 to 100 scale)” value [21, 30] of the same compound?
A: 80

Q: What about the “Ryegrass, Italian plant response rating (0-100)” value [22, 29] of the same compound?
A: 90

Q: What about the “Ryegrass, Italian plant response rating (0 to 100 scale)” value [22, 30] of the same compound?
A: 90

Q: And the “Kochia plant response rating (0-100)” value [23, 29]?
A: 10

Q: And the “Kochia plant response rating (0 to 100 scale)” value [23, 30]?
A: 70

Q: What about the “Wheat plant response rating (0-100)” value [24, 29] of the same compound?
A: 80

Q: And the “Wheat plant response rating (0 to 100 scale)” value [24, 30]?
A: 90

Q: What about the “Blackgrass plant response rating (0-100)” value [25, 29] of the same compound?
A: 70

Q: And the “Blackgrass plant response rating (0 to 100 scale)” value [25, 30]?
A: 90

Q: And the “Soybean plant response rating (0-100)” value [26, 29]?
A: 50

Q: What about the “Soybean plant response rating (0 to 100 scale)” value [26, 30] of the same compound?
A: 60

Q: And the “Ragweed plant response rating (0-100)” value [27, 29]?
A: 0

Q: What about the “Ragweed plant response rating (0 to 100 scale)” value [27, 30] of the same compound?
A: 40

Q: What about the “Amaranth, Palmer plant response rating (0-100)” value [28, 29] of the same compound?
A: 30

Q: What about the “Amaranth, Palmer / Pigweed, Palmer plant response rating (0 to 100 scale)” value [28, 30] of the same compound?
A: 90
